Key:
[1] = test system: MSSP (Methicillin-Susceptible Staphylococcus pseudintermedius); assay: MIC against selected strains of MSSP; format: cell-based; design: MIC MSSP 49051 / MIC MSSP 81923 / MIC MSSP 84250 / Effect on MSSP 86000 / Effect on MSSP 72036 / Effect on MSSP 78032: unit not given beside the values; Effect on MSSP 71990 / Effect on MSSP 86001 / Effect on MSSP 72191 / Effect on MSSP 76986 / Effect on MSSP 77378 / Effect on MSSP 81923 / Effect on MSSP 84250 / Effect on MSSP 84658: unit: µM; conditions: for SP 49051: S. pseudintermedius 49051, Table 6; for Effect on MSSP 71990: strain 71990, Table 5; for Effect on MSSP 72036: strain 72036, Table 5; for Effect on MSSP 72191: strain 72191, Table 5; for Effect on MSSP 76986: strain 76986, Table 5; for Effect on MSSP 77378: strain 77378, Table 5; for Effect on MSSP 78032: strain 78032, Table 5; for Effect on MSSP 81923: strain 81923, Table 5; for Effect on MSSP 84250: strain 84250, Table 5; for Effect on MSSP 84658: strain 84658, Table 5; for Effect on MSSP 86000: strain 86000, Table 5; for Effect on MSSP 86001: strain 86001, Table 5
Procedure: (§1) Peptides according to SEQ ID NOs as listed in Table 1 were prepared by a commercial manufacturer (CS Bio, Menlo Park, Calif.) using solid phase synthesis. Antimicrobial activity was assessed by determining the Minimal Inhibitory Concentration (MIC) against S. aureus and E. coli. Briefly, Microbroth MICs were performed using CLSI methodology (VET01-S2). For S. aureus and E. coli ATCC strains, TSA with 5% lysed horse blood agar was used for overnight culturing at 37° C. ambient air. A 0.5 mM stock for each peptide was made with cell culture water, 0.01% acetic acid and serially diluted and spotted (10 μL) in a 96-well plate for in assay dose titration concentration of 50 μM to 0.05 μM. 0.5 McFarland Standard of each strain was diluted 1:250 in Mueller-Hinton Broth (MHB). 90 μL of culture suspension was then added upon drug in the 96-well plate for overnight incubation for 18-20 hours. The MIC was determined visually at the first well of no visible growth at the corresponding concentration.
(§2) Antimicrobial activity of the peptides listed in Table 2 against different strains of MSSP (Methicillin-Susceptible Staphylococcus pseudintermedius) and MRSP (Methicillin-Resistant Staphylococcus pseudintermedius) was further assessed. The results are in Tables 3 and 4, respectively.

[2] = test system: Canine-derived epithelial keratinocyte (CPEK) cells; format: cell-based
Procedure: Safety of the peptides listed in table 2 was determining by measuring cell viability. Canine-derived epithelial keratinocyte (CPEK) cells were propagated to determine cell viability in the presence of peptides. Cells were grown from a frozen stock in CnT-09-5 (with supplements) pre-warmed media in a T75 flask and incubated overnight at 37° C., 5% CO2. Cells were washed with phosphate buffer and replenished with pre-warmed CnT-05-9 media and repeated for several days until cells reached a density of 6.6×10^4 cells/mL. Cells were then transferred to a 384 well plate, allowed to settle and dosed with peptides and melittin control peptide (50 μM to 0.05 μM) and incubated overnight at 37° C., 5% CO2. 0.1% TritonX100 as (HPE) and phosphate buffer alone as (ZPE) were added to the plates to calculate percent effect once the assay was terminated with 10 μL CELLTITER-GLO® assay reagents for a luminescent readout.

E. coli ATCC 25922 = format: cell-based; conditions: E. coli 25922, Table 6
Procedure: as §1

S. aureus ATCC 29213 = format: cell-based; design: key to SA 29213: MIC in μM (lowest conc. with no visible growth); conditions: S. aureus 29213, Table 6
Procedure: as §1

[3] = test system: MRSP (Methicillin-Resistant Staphylococcus pseudintermedius); assay: MIC against selected strains of MRSP; format: cell-based; design: key to MIC MRSP 72192 / MIC MRSP 76923 / MR 71994 / Mr 88493 / MR 72035 / MR 72192 / MR 76923 / MR 79882 / MR 80279 / MR 81926 / MR 86002 / MR 87665: MIC in μM (visual, first well with no growth); conditions: for MR 71994: MRSP strain 71994, Table 6; for MR 72035: MRSP strain 72035, Table 6; for MR 72192: MRSP strain 72192, Table 6; for MR 76923: MRSP strain 76923, Table 6; for MR 79882: MRSP strain 79882, Table 6; for MR 80279: MRSP strain 80279, Table 6; for MR 81926: MRSP strain 81926, Table 6; for MR 86002: MRSP strain 86002, Table 6; for MR 87665: MRSP strain 87665, Table 6; for Mr 88493: MRSP strain 88493, Table 6
Procedure: as §1, §2

cRBC = format: cell-based, canine
Procedure: SEQ ID NO: 1 was selected for further research. Toxicity of SEQ ID NO: 1 to eukaryotic blood cells was compared to that of tachyplesin (SEQ ID NO: 13). A standard, well referenced red blood cell hemolysis assay was employed against multiple species to test the lysis potential of the peptides. Red blood cells (RBCs) were prepared and isolated by several centrifuge and wash steps to remove the plasma fraction. A dose titration (50 μM to 0.05 μM) of test peptides and control peptide melittin were spotted from 50 mM stocks in a 384 well plate. Prepared RBCs were incubated with peptide for one hour at 37° C. Percent hemolysis was measured by optical density at 405 nm and utilizing 1% TritonX100 as hundred percent effect (HPE) and phosphate buffer alone as zero percent effect (ZPE).

Substance | SP 49051 [1] | Effect on MSSP 71990 [1] | Effect on MSSP 72036 [1] | Effect on MSSP 72191 [1] | Effect on MSSP 76986 [1] | Effect on MSSP 77378 [1] | Effect on MSSP 78032 [1] | Effect on MSSP 81923 [1] | Effect on MSSP 84250 [1] | Effect on MSSP 84658 [1] | Effect on MSSP 86000 [1] | Effect on MSSP 86001 [1] | CPEK (50 μM) [2] | EC 25922 (E. coli ATCC 25922) [µM] | SA 29213 (S. aureus ATCC 29213) | MR 71994 [3] | MR 72035 [3] | MR 72192 [3] | MR 76923 [3] | MR 79882 [3] | further results
29 (PKWCFRVCYRGICYRRCRD; Artificial Antimicrobial peptide) [compound 29] | 1.6 | 1.6 | 1.6 | 1.6 | 1.6 | 0.8 | 0.8 | 0.8 | 0.8 | 1.6 | 1.6 | 1.6 | 17.5 | 1.6 | 3.1 | 1.6 | 1.6 | 0.8 | 1.6 | 0.8 | MR 80279 [3]: 0.8; MR 81926 [3]: 0.8; MR 86002 [3]: 1.6; MR 87665 [3]: 1.6; Mr 88493 [3]: 1.6; cRBC (50 μM) (cRBC): 68.2
112 (KWCFRVCYRGICYRRCKD; Artificial Antimicrobial peptide) [compound 112] | 1.6 | 1.6 | 1.6 | 1.6 | 1.6 | 0.8 | 1.6 | 1.6 | 1.6 | 1.6 | 1.6 | 1.6 | 14.2 | 1.6 | 3.1 | 1.6 | 1.6 | 1.6 | 1.6 | 0.8 | MR 80279 [3]: 0.8; MR 81926 [3]: 1.6; MR 86002 [3]: 1.6; MR 87665 [3]: 1.6; Mr 88493 [3]: 1.6; cRBC (50 μM) (cRBC): 61.0
99 (KWCFFVCYRGICYRRCRD; Artificial Antimicrobial peptide) [compound 99] | 3.1 | 1.6 | 1.6 | 3.1 | 1.6 | 1.6 | 1.6 | 1.6 | 3.1 | 3.1 | 3.1 | 1.6 | 19.9 | 1.6 | 6.2 | 1.6 | 3.1 | 3.1 | 1.6 | 1.6 | MR 80279 [3]: 1.6; MR 81926 [3]: 3.1; MR 86002 [3]: 3.1; MR 87665 [3]: 1.6; Mr 88493 [3]: 1.6; cRBC (50 μM) (cRBC): 100.0
113 (KWCFRVCYRGICYRRCAD; Artificial Antimicrobial peptide) [compound 113] | 1.6 | 1.6 | 1.6 | 1.6 | 1.6 | 1.6 | 1.6 | 1.6 | 1.6 | 1.6 | 1.6 | 1.6 | 15.7 | 1.6 | 6.2 | 1.6 | 1.6 | 1.6 | 1.6 | 1.6 | MR 80279 [3]: 1.6; MR 81926 [3]: 1.6; MR 86002 [3]: 1.6; MR 87665 [3]: 1.6; Mr 88493 [3]: 1.6; cRBC (50 μM) (cRBC): 86.3
106 (KWCWRVCYRGICYRRCRD; Artificial Antimicrobial peptide) [compound 106] | 1.6 | 1.6 | 1.6 | 1.6 | 1.6 | 0.8 | 1.6 | 1.6 | 1.6 | 1.6 | 1.6 | 1.6 | 25.2 | 3.1 | 3.1 | 1.6 | 3.1 | 1.6 | 1.6 | 0.8 | MR 80279 [3]: 1.6; MR 81926 [3]: 1.6; MR 86002 [3]: 1.6; MR 87665 [3]: 1.6; Mr 88493 [3]: 3.1; cRBC (50 μM) (cRBC): 101.5
103 (KWCFRVCKRGICYRRCRD; Artificial Antimicrobial peptide) [compound 103] | 3.1 | 3.1 | 3.1 | 3.1 | 3.1 | 3.1 | 3.1 | 3.1 | 6.2 | 3.1 | 3.1 | 3.1 | −0.5 | 6.2 | 25 | 3.1 | 3.1 | 3.1 | 3.1 | 3.1 | MR 80279 [3]: 3.1; MR 81926 [3]: 3.1; MR 86002 [3]: 3.1; MR 87665 [3]: 3.1; Mr 88493 [3]: 3.1; cRBC (50 μM) (cRBC): 7.9

— US11352396B2, “Antimicrobial peptides and methods of using same” (Zoetis Services LLC, priority 2017, dated 2022)
